Results from patent US20130216482A1, “METHODS AND COMPOSITIONS FOR NON-INVASIVE, DYNAMIC IMAGING OF INTESTINAL MOTILITY” (The Board of Regents of the University of Texas System, priority 2012, published 2013).

Assay: In vivo dynamic NIR fluorescence imaging of ICG distribution, clearance and GI transit
Set-up: species or system mice
Protocol: Mice were chosen because part of the study involved opening the peritoneal cavity and removing organs to provide detailed information about the method and its abilities. Therefore, the subjects of the study were Female C57BL6 mice (4-6 wk old; Charles River, Wilmington, Mass., USA) that were housed and maintained in a pathogen-free mouse facility accredited by the American Association for Laboratory Animal Care. All studies were performed in accordance with the guidelines of the Institutional Animal Care and Use Committee. Animal experiments were approved by University of Texas Health Science Center Institutional Animal Care and Usage Committee in accordance with NIH guidelines.
In order to carry out in vivo dynamic NIR imaging of GI Motility, the mice were anesthetized with isofluorane and maintained at 37° C. on a warming pad. A volume of 10 μl and 50 ul of 645 μM of IC-Green (Akorn, Inc. Buffalo Grove, Ill., USA) dissolved in mixture of distilled water and 0.9% Sodium Chloride in a volume ratio of 1:9 was injected intradermally and intravenously, respectively.
For intravenous injection of ICG, a catheter was placed in the tail vein of anesthetized mice to facilitate the subsequent delivery of the fluorescent dye. Dynamic fluorescence images were acquired for a period of approximately 6 min immediately before and up to 24 hrs after intravenous injection using a custom-built NIR fluorescence imaging system, the basics of which are presented in FIG. 6 and has been described elsewhere (for example U.S. Pat. Nos. 8,084,753; 7,875,260; 7,865,230; 7,599,732; 7,328,059; 7,268,873; 7,187,441; 7,054,002; 6,930,777; 6,771,370; 5,818,583; 5,865,754 and Kwon and Sevick-Muraca, Lymphat Res Biol 5, 219-231, 2007; Kwon and Sevick-Muraca, J Immunol Methods 360, 167-172, 2010). Anesthetized mice were uniformly illuminated by 785 nm light from a laser diode and the emitted fluorescence was collected using an Electron Multiplying Charge Coupled Device (EMCCD) camera with a holographic filter and a bandpass filter placed prior to a 28 mm lens. Image acquisition with the camera exposure time of 100 ms for fluorescence and white light imaging was accomplished by V++ software. The abdominal skin temperature was monitored for temperature changes during dynamic fluorescence imaging using an infrared thermometer but no temperature changes were observed. Because it was possible that the non-invasive imaging of the intestines may not distinguish the GI lumen from blood and lymphatic vessels, necropsy of the mouse with exposure of the abdomen was performed at 1 hr post injection (p.i.) and the GI tract was removed and laid out on a black paper for intravital imaging.
The data obtained were analyzed with a custom Matlab (The MathWorks, Inc., Natick, Mass., USA) program and ImageJ (National Institutes of Health, Bethesda, Md., USA). Fixed regions of interest (ROIs) from equivalent areas were selected along the length of the fluorescent intestine. An average fluorescent intensity within each ROI was plotted as a function of imaging time and/or length of the intestine. A three-dimensional plot of fluorescent intensity as a function of time and distance was generated and used as a spatio-temporal map to assess the propagation velocity and the frequency of the propagation along the intestine. No corrections were made for respiratory movements in the construction of the three-dimensional spatio-temporal maps. The packet of fluorescent contents is represented by the peak in fluorescence intensity which propagates along the intestine with time. Two ROIs were identified, from which the distance and time information was extracted to measure the propagation velocity. In this study, peristalsis was defined as aboral propagation of contraction waves along the intestine.

[1] = 1 hr post injection, abdomen exposed (FIG. 4: intravenous)

CC1(C)C(/C=C/C=C/C=C/C=C2\N(CCCCS(=O)(=O)O)c3ccc4ccccc4c3C2(C)C)=[N+](CCCCS(=O)(=O)[O-])c2ccc3ccccc3c21 [ICG, indocyanine green]
fluorescence in the cecum [1]: weak | fluorescence throughout the small intestine [1]: strong but non-uniform | source of fluorescent signal in dissected small intestine (GI tract removed 1 hr post injection, contents removed): does not arise from the intestinal tissues, but rather from its contents | earliest detection of fluorescent signal in the cecum (after intradermal injection, also observed at 24 hr post injection): 1 h | time fluorescent vessels could be visualized (after intravenous administration): up to 2 min | distribution of the ICG throughout the mouse (following intravenous injection): within seconds | fluorescent signal in the liver (injected intravenously, 1 h post injection): greatly reduced | fluorescence in the liver (and gallbladder) (intradermal administration, 1 h post injection): still high | fluorescent signal arising from the stomach (post injection, all times): absent at all times
